Assay results published in publication PMC3226453, “Targeting the Wolbachia Cell Division Protein FtsZ as a New Approach for Antifilarial Therapy” (PLoS Neglected Tropical Diseases, 2011).

Columns and labels:
[1] = molecular target: T1, Ec-FtsZ (Escherichia coli, UniProt P0A9A6); assay: enzyme-coupled GTPase assay, dose response; format: biochemical
T1 construct: N-terminal His tag, from strain MG1655
T1 sequence (P0A9A6 1-383): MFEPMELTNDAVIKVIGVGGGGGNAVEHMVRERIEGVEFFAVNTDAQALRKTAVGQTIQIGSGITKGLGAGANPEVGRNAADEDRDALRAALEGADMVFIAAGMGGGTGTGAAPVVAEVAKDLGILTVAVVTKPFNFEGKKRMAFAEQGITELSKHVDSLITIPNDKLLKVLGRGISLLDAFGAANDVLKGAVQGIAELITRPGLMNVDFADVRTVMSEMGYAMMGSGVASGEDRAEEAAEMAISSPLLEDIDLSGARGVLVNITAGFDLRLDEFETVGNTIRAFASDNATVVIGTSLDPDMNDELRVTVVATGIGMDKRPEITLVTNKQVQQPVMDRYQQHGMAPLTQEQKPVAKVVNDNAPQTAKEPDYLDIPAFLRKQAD

[2] = molecular target: T1, Ec-FtsZ; assay: enzyme-coupled (PK/LDH, NADH) GTPase assay; format: biochemical
[3] = molecular target: T2, (UniProt Q5GS34); assay: enzyme-coupled (PK/LDH, NADH) GTPase assay; format: biochemical, Wolbachia endosymbiont of Brugia malayi
T2 construct: gene ftsZ; full-length, N-terminal His6 tag

[4] = molecular target: T1, Ec-FtsZ; assay: enzyme-coupled GTPase assay, specific activity; format: biochemical

T2 sequence (Q5GS34 1-396 limits assumed): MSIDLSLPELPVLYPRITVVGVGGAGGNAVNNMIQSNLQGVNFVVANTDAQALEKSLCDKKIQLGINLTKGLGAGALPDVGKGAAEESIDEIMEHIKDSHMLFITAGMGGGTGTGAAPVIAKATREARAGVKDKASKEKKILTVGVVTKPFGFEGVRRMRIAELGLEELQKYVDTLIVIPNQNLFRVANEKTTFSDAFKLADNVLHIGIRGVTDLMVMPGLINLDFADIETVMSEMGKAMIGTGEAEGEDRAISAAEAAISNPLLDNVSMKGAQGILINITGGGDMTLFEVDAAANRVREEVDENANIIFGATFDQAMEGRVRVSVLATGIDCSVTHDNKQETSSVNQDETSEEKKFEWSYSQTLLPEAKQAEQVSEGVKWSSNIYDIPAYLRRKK

COc1ccc(-c2ccc(C(C(=O)NC3CCCCC3)N(Cc3ccccn3)C(=O)c3ccccc3)cc2)cc1 (centres unmarked) [AV-C6]
enzyme-coupled GTPase assay, dose response [1]: both compounds inhibited Ec-FtsZ activity although each was slightly less potent

COc1ccc2cc3[n+](cc2c1OC)CCc1cc2c(cc1-3)OCO2 [berberine]
IC50 [2]: 240 µM
IC50 [3]: 320 µM

Nc1nc2c(ncn2[C@@H]2O[C@H](COP(=O)(O)OP(=O)(O)OP(=O)(O)O)[C@@H](O)[C@H]2O)c(=O)[nH]1 [GTP]
enzyme-coupled GTPase assay, specific activity [4]: 0.22 ± 0.015 µmol/min/mg

CCCCNC(=O)C(c1ccc2cc(O)ccc2c1)N(Cc1ccc(Cl)cc1)C(=O)CCC (centres unmarked) [N938]
enzyme-coupled GTPase assay, dose response [1]: both compounds inhibited Ec-FtsZ activity although each was slightly less potent
